Experiments:
Assay type in all cases: physicochemical
[1] = Levothyroxine release from capsule with 3 nm nanochannel membrane into sink solution; conditions: powder, 2 separate experiments (019, 040)
Text: The implantable capsule comprising one or more nanochannel membranes were fabricated according to US 2010/0152699 and PCT/US2009/064376. The nanochannel membranes present nanochannels ranging in sizes between 3 and 50 nm. The nanochannel membranes (FIG. 2A) were produced in 29 configurations presenting different constant rates of delivery. Custom diffusion devices (FIG. 2B) were utilized for measuring the amount of drug released from nanochannel membrane devices using UV-spectroscopy, as described in Grattoni et al., Lab on a Chip 10:3074-3083 (2010) and Grattoni et al., Anal. Chem. 83:3096-3103 (2011). A linear standard curve relating UV absorbance and concentration of diffused substance was obtained at a wavelength of 250 nm and used for the release test of testosterone. A linear standard curve relating UV absorbance and concentration of diffused substance was obtained at a wavelength of 240 nm and used for the release test of levothyroxine. […]
PEEK capsules were loaded with 852 and 875 μL of Millipore water and 17.1 mg of powder. […] For the release measurement, a UV-Vis absorbance versus concentration standard curve was prepared. The absorbance was measured at 240 nm. The sampling method consisted of removing 1.5 mL of the sink solution, measuring the absorbance, and returning the sample to the bottle. […]

[2] = Second long-term testosterone release experiment, capsule with 40 nm membrane into sink solution; conditions: pellet formulation (Testopel), 40 nm nanochannel membrane
Text: The second long-term testosterone release experiment was run with the same setup and measurement method. In this case, 40 nm membranes with 8 μm wide and 1 μm long nanochannels were used for both testosterone formulations. The nanochannel membrane was fabricated by NanoMedical Systems, Inc., Austin Tex. by using the fabrication methods as described in PCT/US2009/064376. In general, the nanochannel membrane was fabricated with microfabrication techniques by employing a sacrificial layer technique, to obtain precise nanochannels parallel to the membrane surface and connected to the membrane inlet and outlet by means of sets of microchannels.
Testosterone powder and pellet (26 and 24.7 mg, respectively) were weighted into PEEK capsules. Both capsules were filled with 900 μL and dropped into 90 mL of Millipore water. The sampling measurement was performed every other day with the same method described above.

[3] = First long-term testosterone release experiment, capsule with 3 nm membrane into sink solution; conditions: pellet formulation (Testopel), 3 nm nanochannel membrane, 37° C.
Experimental: In the first long-term testosterone release experiment, two testosterone formulations, powder and pellet (Testopel), were used. The release experiment was performed from a capsule into a bottle containing the recipient sink solution. A 3 nm membrane was used for each testosterone formulation and assembled within the capsule. Each nanochannel presented a width of 5 μm and a length of 3 μm. The nanochannel membrane was fabricated by NanoMedical Systems, Inc., Austin Tex. by using the fabrication methods as described in PCT/US2009/064376. In general, the nanochannel membrane was fabricated with microfabrication techniques by employing a sacrificial layer technique, to obtain precise nanochannels parallel to the membrane surface and connected to the membrane inlet and outlet by means of sets of microchannels.
The total number of nanochannel per membrane is equal to 118496. Testosterone powder (21.2 mg) was weighted into the titanium capsule, which was filled with 791 μL of Millipore water. […] For the release measurement of both testosterone conformations, a UV-Vis absorbance versus concentration standard curve was prepared. The testosterone solutions were sampled every other day and the UV absorbance was measured at a wavelength of 250 nm. The sampling method consisted of removing 1.5 mL of the sink solution, measuring the absorbance, and returning the sample to the bottle. […]

[4] = Preliminary release of testosterone from solid pellets through 3 nm nanochannel membrane (UV absorbance)
Experimental: In a preliminary experiment, the nanochannel implant was loaded with degradable testosterone pellets immersed in DI water. The amount of DI water inserted in the capsule was approximately 700 μL.

With `N[C@@H](Cc1cc(I)c(Oc2cc(I)c(O)c(I)c2)c(I)c1)C(=O)O.O.O.O.O.O.[Na]` [levothyroxine, L-thyroxine sodium pentahydrate] the “duration of continuous and constant release of levothyroxine” value [1] was 17 days and the “approximate daily release rate of levothyroxine” value ([1]; 37° C.) was ~500 µg/day.
For `C[C@]12CC[C@H]3[C@@H](CCC4=CC(=O)CC[C@@]43C)[C@@H]1CC[C@@H]2O` [testosterone], the “duration of constant (linear) delivery of testosterone” value [2] was “over 160 days”, the “duration of constant (linear) delivery of testosterone” value [3] was “over 180 days” and the “duration of constant release of testosterone” value ([4]; solid pellets) was 13 days. For the same compound, the “release rate of testosterone” value ([4]; solid pellets (24 mg testosterone) in DI water) was 5 µg/day.

Source: patent publication US20150032088A1, “SUSTAINED DRUG DELIVERY FROM SOLID STATE COMPOSITIONS WITH NANOCHANNEL MEMBRANES” (priority 2012, published 2015)
